Test results as given in patent publication US9242970B2 (ACTELION PHARMACEUTICALS LTD., priority 2010, dated 2016).
Where two headings read alike, the source gives them in different places.

Assays:
human orexin-2 receptor = human orexin-2 receptor (Homo sapiens (Human), UniProt O43614); assay: In vitro assay: intracellular calcium measurements (FLIPR), antagonistic activity; assay type: cell-based; conditions: CHO cells, 3 nM orexin-A, marked values are geometric means of n = 2-6, read-out: IC50 OX2
human orexin-1 receptor = human orexin-1 receptor (Homo sapiens (Human), UniProt O43613); assay: as above; assay type: cell-based; conditions: CHO cells, 3 nM orexin-A, marked values are geometric means of n = 2-6, read-out: IC50 OX1
[1] = compound incubation time of 10 min

Chain of human orexin-2 receptor (O43614 whole entry): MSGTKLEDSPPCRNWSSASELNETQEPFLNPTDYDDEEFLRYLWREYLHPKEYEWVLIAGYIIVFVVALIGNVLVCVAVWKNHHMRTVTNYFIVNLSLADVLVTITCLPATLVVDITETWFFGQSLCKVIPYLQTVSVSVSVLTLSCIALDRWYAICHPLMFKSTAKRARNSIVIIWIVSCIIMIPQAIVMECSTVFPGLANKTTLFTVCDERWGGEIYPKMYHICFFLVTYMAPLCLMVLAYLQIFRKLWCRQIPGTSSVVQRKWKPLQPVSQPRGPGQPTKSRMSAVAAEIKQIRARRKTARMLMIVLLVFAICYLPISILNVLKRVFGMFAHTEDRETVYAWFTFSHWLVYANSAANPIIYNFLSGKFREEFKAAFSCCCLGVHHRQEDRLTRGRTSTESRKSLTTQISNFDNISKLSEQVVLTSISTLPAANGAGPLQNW
Chain of human orexin-1 receptor (O43613 whole entry): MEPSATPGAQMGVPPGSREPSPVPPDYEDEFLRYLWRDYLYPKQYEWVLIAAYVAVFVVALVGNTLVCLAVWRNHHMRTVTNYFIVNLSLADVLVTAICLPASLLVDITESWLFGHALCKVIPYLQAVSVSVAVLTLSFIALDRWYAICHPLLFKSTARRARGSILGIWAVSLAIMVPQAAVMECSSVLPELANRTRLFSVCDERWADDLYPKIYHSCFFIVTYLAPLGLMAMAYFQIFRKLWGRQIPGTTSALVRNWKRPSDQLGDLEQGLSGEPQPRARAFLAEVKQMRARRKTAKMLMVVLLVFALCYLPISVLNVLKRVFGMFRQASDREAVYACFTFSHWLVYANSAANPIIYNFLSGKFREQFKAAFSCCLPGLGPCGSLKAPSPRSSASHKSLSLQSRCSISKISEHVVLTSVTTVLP

SMILES | IC50 (human orexin-2 receptor; [1]) | IC50 (human orexin-1 receptor; [1]) | IC50 (human orexin-2 receptor; compound incubation 120 min) | IC50 (human orexin-1 receptor; compound incubation 120 min)
COc1cccc(OC)c1C1CCCC(=O)N1Cc1ccc(OC(F)(F)F)c(Cl)c1 (stereo not drawn) [Example 161, 1-(3-chloro-4-(trifluoromethoxy)benzyl)-6-(2,6-dimethoxyphenyl)piperidin-2-one] | 62 nM | 147 nM |  | 
O=C1CCC(c2ccccc2-c2ccccc2)N1Cc1ccc(OC(F)(F)F)cc1 (stereo not drawn) [Example 287, 5-([1,1′-biphenyl]-2-yl)-1-(4-(trifluoromethoxy)benzyl)pyrrolidin-2-one] |  |  | 585 nM | 922 nM
COc1cccc(OC)c1C1CCC(=O)N1Cc1cccc(N2CCCCC2)c1 (stereo not drawn) [Example 129, 5-(2,6-dimethoxyphenyl)-1-(3-(piperidin-1-yl)benzyl)pyrrolidin-2-one] |  |  | 858 nM | 198 nM
COc1cccc(OC)c1C1CCCC(=O)N1Cc1ccc(OCCF)cc1 (stereo not drawn) [Example 176, 6-(2,6-dimethoxyphenyl)-1-(4-(2-fluoroethoxy)benzyl)piperidin-2-one] | 61 nM | 327 nM |  | 
COc1cccc(OCCO)c1C1CCCC(=O)N1Cc1ccc(OC(F)(F)F)cc1 (stereo not drawn) [Example 213, 6-(2-(2-hydroxyethoxy)-6-methoxyphenyl)-1-(4-(trifluoromethoxy)benzyl)piperidin-2-one] | 85 nM | 1380 nM |  | 
COc1cccc(OC)c1C1CC(C)C(=O)N1Cc1cccc(-c2ccccn2)c1F (stereo not drawn) [Example 146, 5-(2,6-dimethoxyphenyl)-1-(2-fluoro-3-(pyridin-2-yl)benzyl)-3-methylpyrrolidin-2-one] |  |  | 230 nM | 39 nM
COc1cccc(OC)c1C1CC(C)C(=O)N1Cc1ccc(OC(F)F)cc1 (stereo not drawn) [Example 402, 1-(4-(difluoromethoxy)benzyl)-5-(2,6-dimethoxyphenyl)-3-methylpyrrolidin-2-one] |  |  | 621 nM | 271 nM
COc1ccc2c(c1C1CCCC(=O)N1Cc1ccc(OC(F)(F)F)cc1)OCO2 (stereo not drawn) [Example 449, 6-(5-methoxybenzo[d][1,3]dioxol-4-yl)-1-(4-(trifluoromethoxy)benzyl)piperidin-2-one] |  |  | 23 nM | 351 nM
CCOc1cccc(F)c1C1CC(C)C(=O)N1Cc1csc(-c2ccc(C)cc2)n1 (stereo not drawn) [Example 383, 5-(2-ethoxy-6-fluorophenyl)-3-methyl-1-((2-(p-tolyl)thiazol-4-yl)methyl)pyrrolidin-2-one] |  |  | 9 nM | 234 nM
CCOc1ccc(F)c(F)c1[C@@H]1C[C@H](F)C(=O)N1Cc1ccc(OC(F)(F)F)cc1 (racemic) [Example 340, rac-(3S*,5S*)-5-(6-ethoxy-2,3-difluorophenyl)-3-fluoro-1-(4-(trifluoromethoxy)benzyl)pyrrolidin-2-one] |  |  | 17 nM | 981 nM
CCOc1ccccc1C1CCCC(=O)N1Cc1ccc(OC(F)(F)F)cc1 (stereo not drawn) [Example 251, 6-(2-ethoxyphenyl)-1-(4-(trifluoromethoxy)benzyl)piperidin-2-one] | 426 nM | 4070 nM |  | 
COc1cccc(F)c1C1CC(C)C(=O)N1Cc1ccc2oc3ccccc3c2c1 (stereo not drawn) [Example 362, 1-(dibenzo[b,d]furan-2-ylmethyl)-5-(2-fluoro-6-methoxyphenyl)-3-methylpyrrolidin-2-one] |  |  | 6 nM | 85 nM
COc1cccc(OCCCO)c1C1CCCC(=O)N1Cc1ccc(OC(F)(F)F)cc1 (stereo not drawn) [Example 209, 6-(2-(3-hydroxypropoxy)-6-methoxyphenyl)-1-(4-(trifluoromethoxy)benzyl)piperidin-2-one] | 286 nM | 1060 nM |  | 
CC1CC(c2c(F)cccc2OCCO)N(Cc2ccc(OC(F)(F)F)cc2)C1=O (stereo not drawn) [Example 416, 5-(2-fluoro-6-(2-hydroxyethoxy)phenyl)-3-meetthyl-1-(4-(trifluoromethoxy)benzyl)pyrrolidin-2-one] |  |  | 59 nM | 2940 nM
COc1cccc(OC)c1C1CCCCC(=O)N1Cc1csc(-c2ccccc2)n1 (stereo not drawn) [Example 98, 7-(2,6-dimethoxyphenyl)-1-((2-phenylthiazol-4-yl)methyl)azepan-2-one] |  |  | 6 nM | 6 nM
COc1ccc2nc(C)oc2c1C1CCCC(=O)N1Cc1cccc(-c2ccccc2)c1 (stereo not drawn) [Example 440, 1-([1,1′-biphenyl]-3-ylmethyl)-6-(6-methoxy-2-methylbenzo[d]oxazol-7-yl)piperidin-2-one] |  |  | 91 nM | 46 nM
COc1cccc(OC)c1C1CCC(C)C(=O)N1Cc1ccc(OC(F)(F)F)cc1 (stereo not drawn) [Example 216, 6-(2,6-dimethoxyphenyl)-3-methyl-1-(4-(trifluoromethoxy)benzyl)piperidin-2-one] | 894 nM | 40 nM |  | 
Cc1nc(-c2cccc(CN3C(=O)CCCC3c3ccccc3-c3ccccc3)c2)cs1 (stereo not drawn) [Example 283, 6-([1,1′-biphenyl]-2-yl)-1-(3-(2-methylthiazol-4-yl)benzyl)piperidin-2-one] |  |  | 548 nM | 275 nM
COc1ccnc(OC)c1C1CC(C)C(=O)N1Cc1csc(-c2ccc(C)cc2)n1 (stereo not drawn) [Example 350, 5-(2,4-dimethoxypyridin-3-yl)-3-methyl-1-((2-(p-tolyl)thiazol-4-yl)methyl)pyrrolidin-2-one] |  |  | 51 nM | 665 nM
COc1cccc(OC)c1C1CCCC(=O)N1Cc1ccc(F)c(-c2ccccn2)c1 (stereo not drawn) [Example 41, 6-(2,6-dimethoxyphenyl)-1-(4-fluoro-3-(pyridin-2-yl)benzyl)piperidin-2-one] |  |  | 26 nM | 18 nM
COc1cccc(OC)c1C1CCCC(=O)N1Cc1ccc(Oc2ccccc2)nc1 (stereo not drawn) [Example 192, 6-(2,6-dimethoxyphenyl)-1-((6-phenoxypyridin-3-yl)methyl)piperidin-2-one] | 29 nM | 361 nM |  | 
COc1cccc(OC)c1C1CCCC(=O)N1Cc1ccc2c(c1)OC(F)(F)O2 (stereo not drawn) [Example 182, 1-((2,2-difluorobenzo[d][1,3]dioxol-5-yl)methyl)-6-(2,6-dimethoxyphenyl)piperidin-2-one] | 178 nM | 283 nM |  | 
COc1cccc(OC)c1C1CCCC(=O)N1Cc1cnc(OC(F)F)c(C)c1 (stereo not drawn) [Example 69, 1-((6-(difluoromethoxy)-5-methylpyridin-3-yl)methyl)-6-(2,6-dimethoxyphenyl)piperidin-2-one] |  |  | 77 nM | 247 nM
COc1cccc(OC)c1C1CC(C)C(=O)N1Cc1cccc(-n2cccn2)c1 (stereo not drawn) [Example 135, 1-(3-(1H-pyrazol-1-yl)benzyl)-5-(2,6-dimethoxyphenyl)-3-methylpyrrolidin-2-one] |  |  | 264 nM | 23 nM
COc1cccc(OC)c1C1CCCCC(=O)N1Cc1ccc2sc(C)nc2c1 (stereo not drawn) [Example 95, 7-(2,6-dimethoxyphenyl)-1-((2-methylbenzo[d]thiazol-5-yl)methyl)azepan-2-one] |  |  | 29 nM | 8 nM
COc1cccc(OC)c1C1CC(C)C(=O)N1Cc1ccccc1OC(F)(F)F (stereo not drawn) [Example 405, 5-(2,6-dimethoxyphenyl)-3-methyl-1-(2-(trifluoromethoxy)benzyl)pyrrolidin-2-one] |  |  | 87 nM | 555 nM
COc1cccc(OC)c1C1CNCC(=O)N1Cc1ccc(OC(F)(F)F)cc1 (stereo not drawn) [Example 267, 6-(2,6-dimethoxyphenyl)-1-(4-(trifluoromethoxy)benzyl)piperazin-2-one] | 589 nM | 2680 nM |  | 
